Assay results as given in patent US12655116B2, “Substituted isophthalic acid diamides” (Bayer Aktiengesellschaft, priority 2020, dated 2026).

Legend:
[1] = tested on: VIOTR; test: Pre-emergence herbicidal action against VIOTR; type: in vivo, Viola tricolor
How it was run: (§1)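 Visual rating at 3 weeks vs untreated pots; 0–100% scale, 100% = plants died. Treatment: aqueous WP/EC spray onto covering soil, 600–800 l/ha, 0.2% wetter, seeds in sandy loam.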

[2] = tested on: AVEFA; test: Pre-emergence herbicidal action against AVEFA; type: in vivo, Avena fatua; conditions: 80 g/ha, pre-emergence
How it was run: as §1

[3] = tested on: AMARE; test: Pre-emergence herbicidal action against AMARE; type: in vivo, Amaranthus retroflexus
How it was run: as §1

[4] = tested on: ALOMY; test: Post-emergence herbicidal action against ALOMY; type: in vivo, Alopecurus myosuroides; conditions: dosage 20 g/ha, visual assessment about 3 weeks after treatment vs untreated controls
How it was run: (§2)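 Greenhouse pot plants in sandy loam were sprayed at the one-leaf stage, 2 to 3 weeks after sowing, with WP or EC formulations as aqueous suspension or emulsion (600 to 800 l/ha water, 0.2% wetting agent). About 3 weeks later, damage was scored visually against untreated controls as % action (100% = dead, 0% = like control).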

[5] = tested on: POLCO; test: Post-emergence herbicidal action against POLCO; type: in vivo, Polygonum convolvulus; conditions: dosage 20 g/ha
Method: Seeds of monocotyledonous and dicotyledonous weed and crop plants are laid out in sandy loam soil in wood-fiber pots, covered with soil and cultivated in a greenhouse under good growth conditions. 2 to 3 weeks after sowing, the test plants are treated at the one-leaf stage. The compounds of the invention, formulated in the form of wettable powders (WP) or as emulsion concentrates (EC), are then sprayed onto the green parts of the plants in the form of an aqueous suspension or emulsion at a water application rate equivalent to 600 to 800 l/ha, with addition of 0.2% wetting agent. After the test plants have been left to stand in the greenhouse under optimal growth conditions for about 3 weeks, the action of the preparations is assessed visually in comparison to untreated controls (herbicidal action in percent (%): 100% activity=the plants have died, 0% activity=like control plants). […] The tables below illustrate, in an illustrative manner, the post-emergence herbicidal action of the compounds of the invention, the herbicidal activity being stated in percent.

[6] = tested on: PHBPU; test: Post-emergence herbicidal action against PHBPU; type: in vivo, Pharbitis purpurea; conditions: dosage 20 g/ha
How it was run: as §2

[7] = tested on: SETVI; test: Post-emergence herbicidal action against SETVI; type: in vivo, Setaria viridis; conditions: dosage 20 g/ha
How it was run: as §2

[8] = tested on: POLCO; test: Pre-emergence herbicidal action against POLCO; type: in vivo, Polygonum convolvulus
How it was run: as §1

[9] = tested on: VIOTR; test: Post-emergence herbicidal action against VIOTR; type: in vivo, Viola tricolor; conditions: 20 g/ha
How it was run: as §2

[10] = tested on: PHBPU; test: Pre-emergence herbicidal action against PHBPU; type: in vivo, Pharbitis purpurea; conditions: dosage 80 g/ha
How it was run: as §1

[11] = tested on: MATIN; test: Pre-emergence herbicidal action against MATIN; type: in vivo, Matricaria inodora
How it was run: as §1

[12] = tested on: ECHCG; test: Pre-emergence herbicidal action against ECHCG; type: in vivo, Echinochloa crus-galli; conditions: 80 g/ha
How it was run: as §1

[13] = tested on: ECHCG; test: Post-emergence herbicidal action against ECHCG; type: in vivo, Echinochloa crus-galli
How it was run: as §2

[14] = tested on: ABUTH; test: Pre-emergence herbicidal action against ABUTH; type: in vivo, Abutilon theophrasti; conditions: for Pre-emergence action against ABUTH (herbicidal activity): 80 g/ha, scored visually after 3 weeks vs untreated controls (100% = plants have died, 0% = like control plants)
How it was run: as §1

[15] = tested on: MATIN; test: Post-emergence herbicidal action against MATIN; type: in vivo, Matricaria inodora; conditions: dosage 20 g/ha
How it was run: as §2

[16] = tested on: SETVI; test: Pre-emergence herbicidal action against SETVI; type: in vivo, Setaria viridis
How it was run: as §1

[17] = tested on: DIGSA; test: Pre-emergence herbicidal action against DIGSA; type: in vivo, Digitaria sanguinalis
How it was run: as §1

[18] = tested on: ALOMY; test: Pre-emergence herbicidal action against ALOMY; type: in vivo, Alopecurus myosuroides; conditions: for Pre-emergence action against ALOMY (herbicidal activity): 80 g/ha, scored visually after 3 weeks vs untreated controls (100% = plants have died, 0% = like control plants)
How it was run: as §1

[19] = tested on: ABUTH; test: Post-emergence herbicidal action against ABUTH; type: in vivo, Abutilon theophrasti; conditions: visual assessment about 3 weeks after treatment vs untreated controls
How it was run: as §2

[20] = 20 g/ha, scored visually after 3 weeks vs untreated controls, 100% = plants have died, 0% = like control plants
[21] = 80 g/ha, scored visually after 3 weeks vs untreated controls (100% = plants have died, 0% = like control plants)

SMILES: CCn1nnnc1NC(=O)c1ccc(Br)c(C(=O)NCC2CC2)c1Cl [Example 2-180]
- Pre-emergence action against VIOTR in % ([1]; dosage 20 g/ha): 100%
- Pre-emergence action against VIOTR in % ([1]; dosage 80 g/ha): 100%
- Pre-emergence action against AVEFA in % [2]: 80%
- Pre-emergence action against AMARE in % [3, 20]: 100%
- Pre-emergence action against AMARE in % [3, 21]: 100%
- Post-emergence action against ALOMY in % [4]: 90%
- Post-emergence action against POLCO in % [5]: 100%
- Post-emergence action against PHBPU in % [6]: 90%
- Post-emergence action against SETVI in % [7]: 90%
- Pre-emergence action against POLCO in % ([8]; dosage 80 g/ha): 90%
- Post-emergence action against VIOTR in % [9]: 100%
- Pre-emergence action against PHBPU in % [10]: 100%
- Pre-emergence action against MATIN in % ([11]; dosage 20 g/ha): 100%
- Pre-emergence action against MATIN in % ([11]; dosage 80 g/ha): 100%
- Pre-emergence action against ECHCG in % [12]: 100%
- Post-emergence action against ECHCG in % ([13]; dosage 20 g/ha): 90%
- Pre-emergence action against ABUTH (herbicidal activity) [14]: 100%
- Pre-emergence action against ABUTH (herbicidal activity in percent) ([14]; dosage 20 g/ha, scored visually after 3 weeks vs untreated controls, 100% = plants have died, 0% = like control plants): 100%
- Post-emergence action against MATIN in % [15]: 80%
- Pre-emergence action against SETVI in % ([16]; dosage 80 g/ha): 100%
- Pre-emergence action against DIGSA in % ([17]; dosage 20 g/ha): 100%
- Pre-emergence action against DIGSA in % ([17]; dosage 80 g/ha): 100%
- Pre-emergence action against ALOMY ([18]; 20 g/ha, scored visually after 3 weeks, 100% = plants have died, 0% = like control plants): 80%
- Pre-emergence action against ALOMY (herbicidal activity) [18]: 100%

SMILES: CCn1nnnc1NC(=O)c1ccc(C(F)(F)F)c(C(=O)NCC(F)F)c1C [Example 2-30]
- Pre-emergence action against VIOTR in % ([1]; dosage 20 g/ha): 100%
- Pre-emergence action against VIOTR in % ([1]; dosage 80 g/ha): 100%
- Pre-emergence action against AVEFA in % [2]: 100%
- Pre-emergence action against AMARE in % [3, 20]: 100%
- Pre-emergence action against AMARE in % [3, 21]: 100%
- Post-emergence action against ABUTH in % ([19]; dosage 5 g/ha): 80%
- Post-emergence action against ABUTH in % ([19]; dosage 20 g/ha): 80%
- Post-emergence action against POLCO in % [5]: 80%
- Post-emergence action against PHBPU in % [6]: 90%
- Post-emergence action against SETVI in % [7]: 80%
- Pre-emergence action against POLCO in % ([8]; dosage 20 g/ha): 80%
- Pre-emergence action against POLCO in % ([8]; dosage 80 g/ha): 80%
- Pre-emergence action against PHBPU in % [10]: 80%
- Pre-emergence action against MATIN in % ([11]; dosage 20 g/ha): 100%
- Pre-emergence action against MATIN in % ([11]; dosage 80 g/ha): 100%
- Pre-emergence action against ECHCG in % [12]: 100%
- Post-emergence action against ECHCG in % ([13]; dosage 5 g/ha): 80%
- Post-emergence action against ECHCG in % ([13]; dosage 20 g/ha): 80%
- Pre-emergence action against ABUTH (herbicidal activity) [14]: 100%
- Pre-emergence action against SETVI in % ([16]; dosage 20 g/ha): 100%
- Pre-emergence action against SETVI in % ([16]; dosage 80 g/ha): 100%
- Pre-emergence action against DIGSA in % ([17]; dosage 20 g/ha): 100%
- Pre-emergence action against DIGSA in % ([17]; dosage 80 g/ha): 100%
- Pre-emergence action against ALOMY (herbicidal activity) [18]: 100%
